Reference: patent publication US7402424B2, “Spectroscopic pH measurement at high-temperature and/or high-pressure” (Schlumberger Technology Corporation, priority 2006, dated 2008)
Like-named read-outs stand apart in the source and are kept apart here.

Legend:
[1] = pKa of reagents (reagent properties used in the model of FIG. 2a); format: physicochemical; details: reagent property used in the model of FIG. 2a
[2] = Molar absorptivity ε of acid and base forms of reagents at 570 nm and 445 nm; format: physicochemical; details: for ε at 445 nm (λ1), Acid / ε at 570 nm (λ2), Acid: acid form; for ε at 445 nm (λ1), Acid / ε at 445 nm (λ1), Base / ε at 570 nm (λ2), Base: in M-1·cm-1 (unit assumed); for ε at 445 nm (λ1), Base / ε at 570 nm (λ2), Base: base form (sodium salt of the reagent)

In the case of `O=S1(=O)OC(c2cc(Br)c(O)c(Br)c2)(c2cc(Br)c(O)c(Br)c2)c2ccccc21` [Bromophenol Blue], the pKa [1] is reported as 4.11, the “ε at 445 nm (λ1), Acid” value [2] is reported as 21711 and the ε at 570 nm (λ2), Acid [2] is reported as 378 M⁻¹ cm⁻¹. The “ε at 445 nm (λ1), Base” value [2] was 1981 and the “ε at 570 nm (λ2), Base” value [2] was 46859.

Compound `O=S1(=O)OC(c2ccc(O)cc2)(c2ccc(O)cc2)c2ccccc21` [Phenol Red] has a pKa ([1]; read-out: pKa) of 7.79.

With `O=S1(=O)OC(c2ccc(O)c(Cl)c2)(c2ccc(O)c(Cl)c2)c2ccccc21` [Chlorophenol Red] the pKa [1] was 6.11, the “ε at 445 nm (λ1), Acid” value [2] was 18136 and the ε at 570 nm (λ2), Acid [2] was 58 M⁻¹ cm⁻¹. The “ε at 445 nm (λ1), Base” value [2] was 1985 and the “ε at 570 nm (λ2), Base” value [2] was 54247.
